In patent US9149038B2, “4-amino-6-(heterocyclic)picolinates and 6-amino-2-(heterocyclic)pyrimidine-4-carboxylates and their use as herbicides” (Dow AgroSciences LLC, priority 2013, dated 2015):
Where two headings read alike, the source gives them in different places.

Legend:
Assay type in all cases: in vivo
[1] = system: Key Broadleaf and Grass Weed as well as Crop Species; experiment: Post-Emergent Test I: postemergent herbicidal activity, visual phytotoxicity rating 10 days after treatment (Table 5); settings: post-emergence, 240 h, 3.96 kg ai/ha, 10 days after application
Protocol: Herbicidal evaluations were made visually on a scale of 0 to 100 where 0 represents no activity and 100 represents complete plant death. Post-Emergent Test I: Seeds of test species were obtained from commercial suppliers and planted into a 5″-round pot containing soil-less media mix (Metro-Mix 360®, Sun Gro Horticulture). Postemergence treatments were planted 8-12 days (d) prior to application and cultured in a greenhouse equipped with supplemental light sources to provide a 16 h photoperiod at 24-29° C. All pots were surface irrigated. Approximately 10 milligrams (mg) of each compound were dissolved in 1.3 mL acetone-DMSO (97:3, volume per volume (v/v)) and diluted with 4.1 mL water-isopropanol-crop oil concentrate (78:20:2, v/v/v) containing 0.02% Triton X-155. Treatments were serial diluted with the above formulation solvent to provide 1.85, 0.926, 0.462 and 0.231 milligrams per milliliter (mg/mL) of test compound delivered in 2.7 mL/pot (roughly equivalent to 4.0, 2.0, 1.0, and 0.5 kg/ha, respectively). Formulated compounds were applied using a DeVilbiss® compressed air sprayer at 2-4 pounds per square inch (psi). Following treatment, pots were returned to the greenhouse for the duration of the experiment. All pots were sub-irrigated as needed to provide optimum growing conditions. All pots were fertilized one time per week by subirrigating with Peters Peat-Lite Special® fertilizer (20-10-20). Phytotoxicity ratings were obtained 10 days after treatment postemergence applications. All evaluations were made visually on a scale of 0 to 100 where 0 represents no activity and 100 represents complete plant death and are presented as indicated in Table 4.

[2] = system: Key Broadleaf Weed and Crop Species; experiment: Post-Emergent Test II: postemergent herbicidal activity, visual rating after 14 d (Table 7); settings: post-emergence, 336 h; for pest or weed control at 35 g/ha: 35 g ai/ha; for pest or weed control at 70 g/ha: 70 g ai/ha; for pest or weed control at 140 g/ha: 140 g ai/ha
Method in brief: (§1)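 Greenhouse-grown plants at the first or second true leaf stage (7-21 d, ~15 h photoperiod, 23-29° C day) were sprayed with compound in acetone/DMSO-based aqueous spray containing crop oil concentrate and Triton X-155 at 187 L/ha. Injury versus untreated plants was rated visually after 14 d on a 0-100 scale.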

[3] = system: Key Grass and Sedge Weeds as well as Grass Crops; experiment: Post-Emergent Test II: postemergent herbicidal activity, visual rating after 14 d (Table 8); settings: post-emergence, 336 h; for pest or weed control at 35 g/ha: 35 g ai/ha; for pest or weed control at 70 g/ha: 70 g ai/ha; for pest or weed control at 140 g/ha: 140 g ai/ha
Method in brief: as §1

[4] = lambsquarters (Chenopodium album), read-out: Visual Growth Reduction (%) 14 Days After Application CHEAL
[5] = oilseed rape, canola (Brassica napus), read-out: Visual Growth Reduction (%) 14 Days After Application BRSNN
[6] = redroot pigweed (Amaranthus retroflexus), read-out: Visual Growth Reduction (%) 14 Days After Application AMARE
[7] = sunflower (Helianthus annuus), read-out: Visual Growth Reduction (%) 14 Days After Application HELAN
[8] = velvetleaf (Abutilon theophrasti), read-out: Visual Growth Reduction (%) 14 Days After Application ABUTH
[9] = wild poinsettia (Euphorbia heterophylla), read-out: Visual Growth Reduction (%) 14 Days After Application EPHHL
[10] = barnyardgrass (Echinochloa crus-galli), read-out: Visual Growth Reduction (%) 14 Days After Application ECHCG
[11] = giant foxtail (Setaria faberi), read-out: Visual Growth Reduction (%) 14 Days After Application SETFA
[12] = rice (Oryza sativa), read-out: Visual Growth Reduction (%) 14 Days After Application ORYSA
[13] = wheat, spring (Triticum aestivum), read-out: Visual Growth Reduction (%) 14 Days After Application TRZAS
[14] = yellow nutsedge (Cyperus esculentus), read-out: Visual Growth Reduction (%) 14 Days After Application CYPES

**Q.** For `Nc1c(F)c(-c2cccc3c2OC(F)(F)O3)nc(C(=O)O)c1Cl` [Compound 74], which pest or weed control at 3960 g/ha ([1]; giant foxtail (Setaria faberi), read-out: Visual Growth Reduction (%) 10 Days After Application SETFA) is on record?
**A.** 0 to 29%

**Q.** And the pest or weed control at 3960 g/ha ([1]; ivyleaf morningglory (Ipomoea hederecea), read-out: Visual Growth Reduction (%) 10 Days After Application IPOHE)?
**A.** 60 to 74%

**Q.** And the pest or weed control at 3960 g/ha ([1]; sunflower (Helianthus annuus), read-out: Visual Growth Reduction (%) 10 Days After Application HELAN)?
**A.** 95 to 100%

**Q.** What about the pest or weed control at 3960 g/ha ([1]; wild oats (Avena fatua), read-out: Visual Growth Reduction (%) 10 Days After Application AVEFA) of the same molecule?
**A.** 0 to 29%

**Q.** What about the pest or weed control at 35 g/ha [2, 4] of the same molecule?
**A.** 85 to 94%

**Q.** What about the pest or weed control at 70 g/ha [2, 4] of the same molecule?
**A.** 95 to 100%

**Q.** And the pest or weed control at 140 g/ha [2, 4]?
**A.** 95 to 100%

**Q.** What about the pest or weed control at 35 g/ha [2, 5] of the same molecule?
**A.** 75 to 84%

**Q.** And the pest or weed control at 70 g/ha [2, 5]?
**A.** 85 to 94%

**Q.** What about the pest or weed control at 140 g/ha [2, 5] of the same molecule?
**A.** 95 to 100%

**Q.** What about the pest or weed control at 35 g/ha [2, 6] of the same molecule?
**A.** 95 to 100%

**Q.** And the pest or weed control at 70 g/ha [2, 6]?
**A.** 95 to 100%

**Q.** What about the pest or weed control at 140 g/ha [2, 6] of the same molecule?
**A.** 95 to 100%

**Q.** What about the pest or weed control at 35 g/ha [2, 7] of the same molecule?
**A.** 75 to 84%

**Q.** What about the pest or weed control at 70 g/ha [2, 7] of the same molecule?
**A.** 75 to 84%

**Q.** And the pest or weed control at 140 g/ha [2, 7]?
**A.** 85 to 94%

**Q.** What about the pest or weed control at 35 g/ha [2, 8] of the same molecule?
**A.** 0 to 29%

**Q.** And the pest or weed control at 70 g/ha [2, 8]?
**A.** 30 to 44%

**Q.** What about the pest or weed control at 140 g/ha [2, 8] of the same molecule?
**A.** 45 to 59%

**Q.** What about the pest or weed control at 35 g/ha [2, 9] of the same molecule?
**A.** 0 to 29%

**Q.** What about the pest or weed control at 70 g/ha [2, 9] of the same molecule?
**A.** 0 to 29%

**Q.** And the pest or weed control at 140 g/ha [2, 9]?
**A.** 0 to 29%

**Q.** And the pest or weed control at 35 g/ha [3, 10]?
**A.** 0 to 29%

**Q.** And the pest or weed control at 70 g/ha [3, 10]?
**A.** 0 to 29%

**Q.** What about the pest or weed control at 140 g/ha [3, 10] of the same molecule?
**A.** 0 to 29%

**Q.** And the pest or weed control at 35 g/ha [3, 11]?
**A.** 0 to 29%

**Q.** What about the pest or weed control at 70 g/ha [3, 11] of the same molecule?
**A.** 0 to 29%

**Q.** What about the pest or weed control at 140 g/ha [3, 11] of the same molecule?
**A.** 0 to 29%

**Q.** What about the pest or weed control at 35 g/ha [3, 12] of the same molecule?
**A.** 0 to 29%

**Q.** What about the pest or weed control at 70 g/ha [3, 12] of the same molecule?
**A.** 0 to 29%

**Q.** What about the pest or weed control at 140 g/ha [3, 12] of the same molecule?
**A.** 0 to 29%

**Q.** And the pest or weed control at 35 g/ha [3, 13]?
**A.** 0 to 29%

**Q.** And the pest or weed control at 70 g/ha [3, 13]?
**A.** 0 to 29%

**Q.** And the pest or weed control at 140 g/ha [3, 13]?
**A.** 0 to 29%

**Q.** What about the pest or weed control at 35 g/ha [3, 14] of the same molecule?
**A.** 0 to 29%

**Q.** And the pest or weed control at 70 g/ha [3, 14]?
**A.** 0 to 29%

**Q.** And the pest or weed control at 140 g/ha [3, 14]?
**A.** 0 to 29%
